Values joined by “and” are separate entries in the source; they are usually repeats but may differ in a detail not shown here. Identical values can stand only once. Like-named read-outs stand apart in the source and are kept apart here.
Key:
F666A mutant TRPV3 = biological target: T1, F666A mutant TRPV3 (Mus musculus, UniProt Q8K424, F666A); test: Fura-2 ratiometric Ca2+ uptake, inhibition of 2-APB-evoked response; type: cell-based; conditions: for F340/F380 change normalized to maximal value in the absence of osthole: F666A
T1 construct: expressed in transfected cells; host or cells: HEK 293 S GnTI- cells (baculovirus transduction)
T1 sequence (Q8K424 1-791 F666A): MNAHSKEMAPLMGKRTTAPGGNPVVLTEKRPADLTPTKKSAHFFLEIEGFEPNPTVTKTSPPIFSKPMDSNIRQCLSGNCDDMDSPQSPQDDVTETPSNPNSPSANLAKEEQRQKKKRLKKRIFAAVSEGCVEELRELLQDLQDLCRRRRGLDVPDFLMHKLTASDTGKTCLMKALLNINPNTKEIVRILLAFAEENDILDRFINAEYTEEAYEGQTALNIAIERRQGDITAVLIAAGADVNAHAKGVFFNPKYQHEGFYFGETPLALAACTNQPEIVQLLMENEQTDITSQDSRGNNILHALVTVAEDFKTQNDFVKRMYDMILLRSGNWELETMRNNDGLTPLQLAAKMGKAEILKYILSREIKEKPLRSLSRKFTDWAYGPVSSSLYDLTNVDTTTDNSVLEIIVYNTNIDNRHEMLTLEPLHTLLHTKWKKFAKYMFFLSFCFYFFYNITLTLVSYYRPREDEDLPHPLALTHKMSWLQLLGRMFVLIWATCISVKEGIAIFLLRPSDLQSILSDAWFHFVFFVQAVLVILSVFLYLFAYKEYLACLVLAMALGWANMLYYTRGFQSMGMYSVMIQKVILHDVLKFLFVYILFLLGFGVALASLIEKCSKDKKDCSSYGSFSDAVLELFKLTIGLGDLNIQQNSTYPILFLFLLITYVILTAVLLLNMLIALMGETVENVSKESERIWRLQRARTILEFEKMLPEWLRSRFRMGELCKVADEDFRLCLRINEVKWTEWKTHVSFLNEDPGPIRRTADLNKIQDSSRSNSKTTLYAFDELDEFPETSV
Procedure: GFP-free C-terminally strep-tagged wild-type TRPV3, TRPV3-Y564A, TRPV3-Y594A, TRPV3-F633A, TRPV3-I663W, and TRPV3-F666A were expressed in HEK 293 S GnTI^− cells as previously described[41],[42],[53]. In short, 48 h after transduction, 1-ml aliquots of cell suspension were collected by centrifugation at 550 g for 5 min using an Eppendorf 5424 centrifuge. The cells were resuspended in the pre-warmed modified HEPES-buffered saline (HBS) containing 118 mM NaCl, 4.8 mM KCl, 1 mM MgCl2, 5 mM D-glucose, and 10 mM HEPES pH 7.4 and 5 μg/ml Fura-2 AM (Thermo Fisher Scientific) and incubated for 45 min at 37 °C. The Fura-2-loaded cells were then centrifuged for 5 min at 550 g, resuspended in the pre-warmed, modified HBS and incubated again for 30 min at 37 °C in the dark. The cells were subsequently pelleted and washed twice in the modified HBS. The washed cell pellets were kept on ice in the dark before taking an aliquot for fluorescence measurements. […] We used the lower CaCl2 concentration than before[42],[28] (2.5 mM) to minimize non-specific effects, which often appeared as a drift in the Fura-2 signal at high Ca^2+ concentration, presumably due to cell death as a result of calcium overload. Fluorescence measurements were conducted using a QuantaMaster 40 spectrofluorometer (Photon Technology International) at room temperature in a quartz cuvette under constant stirring. After 60 s since the beginning, the recording was paused and 2-APB was added. After the addition of 2-APB, the recording was continued for the additional 140 s. Changes in intracellular Ca^2+ were measured by taking the ratio of fluorescence emitted at 510 nm at the excitation wavelength of 340 nm and 380 nm. […] The data were processed using Origin 9.0 (OriginLab) software.

wild-type mouse TRPV3 = biological target: T2, wild-type mouse TRPV3 (Mus musculus, UniProt Q8K424); conditions: cited from earlier work; for F340/F380 change normalized to maximal value in the absence of osthole: WT, published before
T2 construct: expressed in transfected cells; host or cells: HEK 293 S GnTI- cells (baculovirus transduction)
T2 sequence (Q8K424 1-791): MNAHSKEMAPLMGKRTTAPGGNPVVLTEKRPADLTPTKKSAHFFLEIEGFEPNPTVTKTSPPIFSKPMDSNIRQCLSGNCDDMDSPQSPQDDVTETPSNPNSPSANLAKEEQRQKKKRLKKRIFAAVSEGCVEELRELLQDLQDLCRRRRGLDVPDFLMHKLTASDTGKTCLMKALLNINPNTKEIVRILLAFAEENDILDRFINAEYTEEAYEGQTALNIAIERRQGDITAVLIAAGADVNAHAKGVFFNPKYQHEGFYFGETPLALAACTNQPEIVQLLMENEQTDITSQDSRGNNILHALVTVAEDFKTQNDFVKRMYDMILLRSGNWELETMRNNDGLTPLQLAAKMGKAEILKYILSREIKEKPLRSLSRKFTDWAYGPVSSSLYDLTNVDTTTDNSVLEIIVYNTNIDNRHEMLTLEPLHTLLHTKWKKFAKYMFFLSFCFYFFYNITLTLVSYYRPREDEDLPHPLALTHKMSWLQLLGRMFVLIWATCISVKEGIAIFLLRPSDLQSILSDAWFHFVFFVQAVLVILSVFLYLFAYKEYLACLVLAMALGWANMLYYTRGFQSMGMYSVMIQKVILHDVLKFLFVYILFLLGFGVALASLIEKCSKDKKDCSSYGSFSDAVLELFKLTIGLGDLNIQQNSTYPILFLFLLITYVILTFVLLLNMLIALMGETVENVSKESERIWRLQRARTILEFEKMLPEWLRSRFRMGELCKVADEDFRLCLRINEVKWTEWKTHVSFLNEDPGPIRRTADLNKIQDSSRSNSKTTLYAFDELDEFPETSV

[1] = biological target: the molecule itself; test: cryo-EM structure; TRPV3 reconstituted in cNW30 nanodiscs with soybean lipids; 150 mM NaCl, 20 mM Tris pH 8.0, 1 mM βME, 100 μM dyclonine plus 100 μM more before freezing; C4 symmetry, 3.16 Å
[2] = osthole Conc 1, single experiments

| Molecule | F340/F380 change normalized to maximal value in the absence of osthole (F666A mutant TRPV3; [2]) | F340/F380 change normalized to maximal value in the absence of osthole (F666A mutant TRPV3; osthole Conc 3, single experiments) | F340/F380 change normalized to maximal value in the absence of osthole (F666A mutant TRPV3; osthole Conc 10, single experiments) | F340/F380 change normalized to maximal value in the absence of osthole (F666A mutant TRPV3; osthole Conc 30, single experiments) | F340/F380 change normalized to maximal value in the absence of osthole (F666A mutant TRPV3; osthole Conc 100, single experiments) | IC50 (F666A mutant TRPV3; HEK 293 GnTI- cells, 200 µM 2-APB after pre-incubation with inhibitor, n = 3) | nHill of inhibition curve, F666A (F666A mutant TRPV3; logistic fit, n = 3) | F340/F380 change normalized to maximal value in the absence of osthole (wild-type mouse TRPV3; [2]) | F340/F380 change normalized to maximal value in the absence of osthole (wild-type mouse TRPV3; osthole Conc 2.5, single experiments) | F340/F380 change normalized to maximal value in the absence of osthole (wild-type mouse TRPV3; osthole Conc 5, single experiments) | F340/F380 change normalized to maximal value in the absence of osthole (wild-type mouse TRPV3; osthole Conc 8, single experiments) | F340/F380 change normalized to maximal value in the absence of osthole (wild-type mouse TRPV3; osthole Conc 12.5, single experiments) | F340/F380 change normalized to maximal value in the absence of osthole (wild-type mouse TRPV3; osthole Conc 18, single experiments) | F340/F380 change normalized to maximal value in the absence of osthole (wild-type mouse TRPV3; osthole Conc 25, single experiments) | F340/F380 change normalized to maximal value in the absence of osthole (wild-type mouse TRPV3; osthole Conc 50, single experiments) | nHill of osthole inhibition curve, wild-type TRPV3 (wild-type mouse TRPV3; n = 4, published before) | IC50 (wild-type mouse TRPV3; n = 4, published before, read-out: IC50, inhibition of wild-type TRPV3 by osthole) | stoichiometry N [1] |
| --- | --- | --- | --- | --- | --- | --- | --- | --- | --- | --- | --- | --- | --- | --- | --- | --- | --- | --- |
| COc1ccc2ccc(=O)oc2c1CC=C(C)C [osthole] | 1.064 and 1.053 and 0.962 | 0.8581 and 0.9473 and 0.9415 | 0.7679 and 0.9394 and 0.7809 | 0.5836 and 0.4944 and 0.6286 | 0.1362 and 0.1904 | 33.1 ± 3.8 µM | 1.37 ± 0.19 | 0.9502 and 0.9764 and 1.106 | 0.949 and 1.067 | 0.9795 and 0.8169 and 0.895 | 0.9193 and 0.8591 and 0.9872 | 0.6517 and 0.6914 and 0.735 | 0.5621 and 0.5685 and 0.5403 | 0.4148 and 0.5672 and 0.4994 | 0.161 and 0.164 and 0.15 and 0.2574 | 1.84 ± 0.14 | 20.5 ± 0.5 µM | – |
| Mouse TRPV3 (vanilloid-subfamily member 3 TRP channel) (natural protein, TRPV3, mouse; model built for residues 118-756, leaving out 462-470 and 611-621) AHSKEMAPLMGKRTTAPGGNPVVLTEKRPADLTPTKKSAHFFLEIEGFEPNPTVTKTSPPIFSKPMDSNIRQCLSGNCDDMDSPQSPQDDVTETPSNPNSPSANLAKEEQRQKKKRLKKRIFAAVSEGCVEELRELLQDLQDLCRRRRGLDVPDFLMHKLTASDTGKTCLMKALLNINPNTKEIVRILLAFAEENDILDRFINAEYTEEAYEGQTALNIAIERRQGDITAVLIAAGADVNAHAKGVFFNPKYQHEGFYFGETPLALAACTNQPEIVQLLMENEQTDITSQDSRGNNILHALVTVAEDFKTQNDFVKRMYDMILLRSGNWELETMRNNDGLTPLQLAAKMGKAEILKYILSREIKEKPLRSLSRKFTDWAYGPVSSSLYDLTNVDTTTDNSVLEIIVYNTNIDNRHEMLTLEPLHTLLHTKWKKFAKYMFFLSFCFYFFYNITLTLVSYYRPREDEDLPHPLALTHKMSWLQLLGRMFVLIWATCISVKEGIAIFLLRPSDLQSILSDAWFHFVFFVQAVLVILSVFLYLFAYKEYLACLVLAMALGWANMLYYTRGFQSMGMYSVMIQKVILHDVLKFLFVYILFLLGFGVALASLIEKCSKDKKDCSSYGSFSDAVLELFKLTIGLGDLNIQQNSTYPILFLFLLITYVILTFVLLLNMLIALMGETVENVSKESERIWRLQRARTILEFEKMLPEWLRSRFRMGELCKVADEDFRLCLRINEVKWTEWKTHVSFLNEDPGPIRRTADLNKIQDSSRSNSKTTLYAFDELDEFPETSV | – | – | – | – | – | – | – | – | – | – | – | – | – | – | – | – | – | 4 |

Source: paper PMC9120478 (Nature Communications, 2022)
